Values quoted from earlier work as cited in patent US4041155A, “Long acting somatostatin composition” (American Home Products Corporation, priority 1974, dated 1977).

Legend:
GH secretion = conditions: patients with acromegaly; cited from earlier work
[1] = test system: release of glucagon, insulin, and GH; conditions: oral glucose tolerance and intravenous arginine tests; cited from earlier work
circulating levels of GH = conditions: subcutaneous route, cited from earlier work

| Substance | circulating levels of glucose (GH secretion) | circulating levels of insulin (GH secretion) | circulating levels of prolactin (GH secretion) | duration of biologic action (GH secretion) | free fatty acids (GH secretion) | inhibitory action on GH secretion (GH secretion) | levels of follicle-stimulating hormone (GH secretion) | levels of luteinizing hormone (GH secretion) | levels of thyrotropin (GH secretion) | release of GH [1] | release of glucagon [1] | release of insulin [1] | circulating levels of GH (circulating levels of GH; "gentled" rats) | elevation of plasma GH concentration induced by sodium pentobarbital (circulating levels of GH; rats) | duration of activity, half-life (circulating levels of GH; rats, estimated) |
| --- | --- | --- | --- | --- | --- | --- | --- | --- | --- | --- | --- | --- | --- | --- | --- |
| Somatostatin: cyclic disulfide tetradecapeptide; Somatotropin-release inhibiting factor secreted by the hypothalamus | fall | fall | fall | brief | increase | nearly complete | No effects | No effects | No effects | impairs the release | impairs the release | impairs the release |  |  |  |
| linear somatostatin: reduced tetradecapeptide; differs from cyclic form by lacking the bridging bond between the two cysteinyl sulfhydryls |  |  |  |  |  |  |  |  |  |  |  |  | lowers the circulating levels of GH | prevents the elevation of plasma GH concentration | less than ten minutes |
